target: T1, GCS (Canis lupus familiaris, UniProt A0A8I3MXG6); assay: Assay 1: GCS Enzymatic Assay (MDCK cell lysate, C6-NBD-Ceramide, LC/MS); format: biochemical, canine; settings: Table 2; data marked by *
T1 sequence (A0A8I3MXG6 1-394): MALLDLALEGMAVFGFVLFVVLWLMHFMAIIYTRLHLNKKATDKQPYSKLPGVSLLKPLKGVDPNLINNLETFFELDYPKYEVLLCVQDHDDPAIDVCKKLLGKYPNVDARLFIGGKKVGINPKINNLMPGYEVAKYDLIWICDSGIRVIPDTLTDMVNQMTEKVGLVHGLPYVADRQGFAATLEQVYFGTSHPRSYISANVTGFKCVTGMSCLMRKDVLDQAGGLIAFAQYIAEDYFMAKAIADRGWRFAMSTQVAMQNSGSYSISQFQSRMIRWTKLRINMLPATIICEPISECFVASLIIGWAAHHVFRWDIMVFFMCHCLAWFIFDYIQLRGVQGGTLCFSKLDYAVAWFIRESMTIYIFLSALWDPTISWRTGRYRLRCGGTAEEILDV
Method in brief: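 LC/MS/MS measurement of glucosylceramide and NBD-ceramide after a 1 h, 37 °C reaction with 100 μM UDP-glucose and 10 μM C6-NBD-ceramide gave IC50s or percent inhibition.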

| Compound | % inhibition generated from Assay 1 |
| --- | --- |
| CC1(C)CCc2cc([C@@H](O)[C@@H](CN3CCCC3)NC(=O)C(F)(F)c3cc4cc(Cl)ccc4o3)ccc2O1 [Compound 119, 2-(5-chlorobenzofuran-2-yl)-N-((1R,2R)-1-(2,2-dimethylchroman-6-yl)-1-hydroxy-3-(pyrrolidin-1-yl)propan-2-yl)-2,2-difluoroacetamide] | A* (the compound had a % inhibition of a percent inhibition of greater than or equal to about 50%) |
| O=C(N[C@H](CN1CCCC1)[C@H](O)c1ccc(OC2CC2)nc1)C(F)(F)CCc1ccc2ccccc2c1 [Compound 120, N-((1R,2R)-1-(6-cyclopropoxypyridin-3-yl)-1-hydroxy-3-(pyrrolidin-1-yl)propan-2-yl)-2,2-difluoro-4-(naphthalen-2-yl)butanamide] | A* (the compound had a % inhibition of a percent inhibition of greater than or equal to about 50%) |
| CN1CCC(Oc2ccc([C@@H](O)[C@@H](CN3CCCC3)NC(=O)C(F)(F)CCc3ccc4ccccc4c3)cc2Cl)CC1 [Compound 121, N-((1R,2R)-1-(3-chloro-4-((l-methylpiperidin-4-yl)oxy)phenyl)-1-hydroxy-3-(pyrrolidin-1-yl)propan-2-yl)-2,2-difluoro-4-(naphthalen-2-yl)butanamide] | B* (the compound had a % inhibition of greater than or equal to about 3% but less than about 50%) |
| O=C(N[C@H](CN1CCC1)[C@H](O)c1ccc(OC2CC2)c(Cl)c1)C(=O)c1cc2cc(Cl)ccc2o1 [Compound 122, N-((1R,2R)-3-(azetidin-1-yl)-1-(3-chloro-4-cyclopropoxyphenyl)-1-hydroxypropan-2-yl)-2-(5-chlorobenzofuran-2-yl)-2-oxoacetamide] | A* (the compound had a % inhibition of a percent inhibition of greater than or equal to about 50%) |
| CN1CCC(Oc2ccc([C@@H](O)[C@@H](CN3CCCC3)NC(=O)C(F)(F)c3cc4cc(Cl)ccc4o3)cc2Cl)CC1 [Compound 123, N-((1R,2R)-1-(3-chloro-4-((l-methylpiperidin-4-yl)oxy)phenyl)-1-hydroxy-3-(pyrrolidin-1-yl)propan-2-yl)-2-(5-chlorobenzofuran-2-yl)-2,2-difluoroacetamide] | A* (the compound had a % inhibition of a percent inhibition of greater than or equal to about 50%) |
| O=C(N[C@H](CN1CCCC1)[C@H](O)c1ccc(OCCN2CCC2)c(Cl)c1)C(F)(F)CCc1ccc2ccccc2c1 [Compound 131, N-((1R,2R)-1-(4-(2-(azetidin-1-yl)ethoxy)-3-chlorophenyl)-1-hydroxy-3-(pyrrolidin-1-yl)propan-2-yl)-2,2-difluoro-4-(naphthalen-2-yl)butanamide] | A* (the compound had a % inhibition of a percent inhibition of greater than or equal to about 50%) |
| O=C(N[C@H](CN1CCC1)[C@H](O)c1ccc(OC2CC2)c(Cl)c1)C(F)(F)CCc1ccc2cc(F)ccc2c1 [Compound 134, N-((1R,2R)-3-(azetidin-1-yl)-1-(3-chloro-4-cyclopropoxyphenyl)-1-hydroxypropan-2-yl)-2,2-difluoro-4-(6-fluoronaphthalen-2-yl)butanamide] | A* (the compound had a % inhibition of a percent inhibition of greater than or equal to about 50%) |
| O=C(N[C@H](CN1CCC1)[C@H](O)c1ccc(OC2CC2)c(Cl)c1)/C(CCc1ccc2cc(F)ccc2c1)=N/O [Compound 137, (E)-N-((1R,2R)-3-(azetidin-1-yl)-1-(3-chloro-4-cyclopropoxyphenyl)-1-hydroxypropan-2-yl)-4-(6-fluoronaphthalen-2-yl)-2-(hydroxyimino)butanamide] | B* (the compound had a % inhibition of greater than or equal to about 3% but less than about 50%) |
| O=C(N[C@H](CN1CCCC1)[C@H](O)c1ccc(OC2CC2)c(Cl)c1)C(F)(F)c1ccc2cc(Cl)ccc2c1 [Compound 139, N-((1R,2R)-1-(3-chloro-4-cyclopropoxyphenyl)-1-hydroxy-3-(pyrrolidin-1-yl)propan-2-yl)-2-(6-chloronaphthalen-2-yl)-2,2-difluoroacetamide] | A* (the compound had a % inhibition of a percent inhibition of greater than or equal to about 50%) |

same assay, conditions: Table 2; data without asterisk; read-out: IC50 (nM) generated from Assay 1

| IC50 [nM] | Compound |
| --- | --- |
| < 50 | O=C(N[C@H](CN1CCCC1)[C@H](O)c1ccc(OC2CC2)c(F)c1)C(F)(F)CCc1ccc2ccccc2c1 [Compound 125, N-((1R,2R)-1-(4-cyclopropoxy-3-fluorophenyl)-1-hydroxy-3-(pyrrolidin-1-yl)propan-2-yl)-2,2-difluoro-4-(naphthalen-2-yl)butanamide] |
| < 50 | O=C(N[C@H](CN1CCCC1)[C@H](O)c1ccc(OC2CC2)c(F)c1)C(F)(F)c1cc2cc(Cl)ccc2o1 [Compound 126, 2-(5-chlorobenzofuran-2-yl)-N-((1R,2R)-1-(4-cyclopropoxy-3-fluorophenyl)-1-hydroxy-3-(pyrrolidin-1-yl)propan-2-yl)-2,2-difluoroacetamide] |
| 50 to 5000 | O=C(N[C@H](CN1CCCC1)[C@H](O)c1ccc(N2CCOCC2)c(Cl)c1)C(F)(F)c1cc2cc(Cl)ccc2o1 [Compound 127, N-((1R,2R)-1-(3-chloro-4-morpholinophenyl)-1-hydroxy-3-(pyrrolidin-1-yl)propan-2-yl)-2-(5-chlorobenzofuran-2-yl)-2,2-difluoroacetamide] |
| < 50 | O=C(N[C@H](CN1CCCC1)[C@H](O)c1ccc(OCCN2CCC2)c(Cl)c1)C(F)(F)c1cc2cc(Cl)ccc2o1 [Compound 128, N-((1R,2R)-1-(4-(2-(azetidin-1-yl)ethoxy)-3-chlorophenyl)-1-hydroxy-3-(pyrrolidin-1-yl)propan-2-yl)-2-(5-chlorobenzofuran-2-yl)-2,2-difluoroacetamide] |
| < 50 | O=C(N[C@H](CN1CCCC1)[C@H](O)c1ccc(OC2COC2)c(Cl)c1)C(F)(F)CCc1ccc2ccccc2c1 [Compound 129, N-((1R,2R)-1-(3-chloro-4-(oxetan-3-yloxy)phenyl)-1-hydroxy-3-(pyrrolidin-1-yl)propan-2-yl)-2,2-difluoro-4-(naphthalen-2-yl)butanamide] |
| < 50 | O=C(N[C@H](CN1CCCC1)[C@H](O)c1ccc(OC2COC2)c(Cl)c1)C(F)(F)c1cc2cc(Cl)ccc2o1 [Compound 130, N-((1R,2R)-1-(3-chloro-4-(oxetan-3-yloxy)phenyl)-1-hydroxy-3-(pyrrolidin-1-yl)propan-2-yl)-2-(5-chlorobenzofuran-2-yl)-2,2-difluoroacetamide] |
| < 50 | O=C(N[C@H](CN1CCCC1)[C@H](O)c1ccc2c(c1)OCCO2)C(F)(F)c1ccc2cc(Cl)ccc2c1 [Compound 132, 2-(6-chloronaphthalen-2-yl)-N-((1R,2R)-1-(2,3-dihydrobenzo[b][1,4]dioxin-6-yl)-1-hydroxy-3-(pyrrolidin-1-yl)propan-2-yl)-2,2-difluoroacetamide] |
| < 50 | O=C(N[C@H](CN1CCCC1)[C@H](O)c1cc(F)c2c(c1)OCCO2)C(F)(F)c1ccc2cc(Cl)ccc2c1 [Compound 135, 2-(6-chloronaphthalen-2-yl)-2,2-difluoro-N-((1R,2R)-1-(8-fluoro-2,3-dihydrobenzo[b][1,4]dioxin-6-yl)-1-hydroxy-3-(pyrrolidin-1-yl)propan-2-yl)acetamide] |
| < 50 | O=C(N[C@H](CN1CCCC1)[C@H](O)c1ccc(OC2CC2)c(Cl)c1)/C(=N/O)c1cc2cc(Cl)ccc2o1 [Compound 136, (E)-N-((1R,2R)-1-(3-chloro-4-cyclopropoxyphenyl)-1-hydroxy-3-(pyrrolidin-1-yl)propan-2-yl)-2-(5-chlorobenzofuran-2-yl)-2-(hydroxyimino)acetamide] |

Second part, the molecule before the results:

| Compound | IC50 [nM] |
| --- | --- |
| O=C(N[C@H](CN1CCCC1)[C@H](O)c1cc(F)c2c(c1)OCCO2)C(=O)c1ccc(-c2ccc(F)cc2)cc1 [Compound 133, N-((1R,2R)-1-(8-fluoro-2,3-dihydrobenzo[b][1,4]dioxin-6-yl)-1-hydroxy-3-(pyrrolidin-1-yl)propan-2-yl)-2-(4′-fluoro-[1,1′-biphenyl]-4-yl)-2-oxoacetamide] | < 50 |
| O=C(N[C@H](CN1CCCC1)[C@H](O)c1cc(F)c2c(c1)OCCO2)/C(=N/O)c1ccc(-c2ccc(F)cc2)cc1 [Compound 138, (E)-N-((1R,2R)-1-(8-fluoro-2,3-dihydrobenzo[b][1,4]dioxin-6-yl)-1-hydroxy-3-(pyrrolidin-1-yl)propan-2-yl)-2-(4′-fluoro-[1,1′-biphenyl]-4-yl)-2-(hydroxyimino)acetamide] | < 50 |
| O=C(N[C@H](CN1CCCC1)[C@H](O)c1cc(F)c2c(c1)OCCO2)C(F)(F)c1ccc(-c2ccc(F)cc2)cc1 [Compound 140, 2,2-difluoro-N-((1R,2R)-1-(8-fluoro-2,3-dihydrobenzo[b][1,4]dioxin-6-yl)-1-hydroxy-3-(pyrrolidin-1-yl)propan-2-yl)-2-(4′-fluoro-[1,1′-biphenyl]-4-yl)acetamide] | < 50 |
| O=C(N[C@H](CN1CCC1)[C@H](O)c1cc(F)c2c(c1)OCCO2)/C(CCc1ccc2ccccc2c1)=N/O [Compound 141, (E)-N-((1R,2R)-3-(azetidin-1-yl)-1-(8-fluoro-2,3-dihydrobenzo[b][1,4]dioxin-6-yl)-1-hydroxypropan-2-yl)-2-(hydroxyimino)-4-(naphthalen-2-yl)butanamide] | < 50 |
| O=C(N[C@H](CN1CCCC1)[C@H](O)c1ccc(OC2CC2)c(Cl)c1)/C(CCc1ccc2ccccc2c1)=N/O [Compound 142, (E)-N-((1R,2R)-1-(3-chloro-4-cyclopropoxyphenyl)-1-hydroxy-3-(pyrrolidin-1-yl)propan-2-yl)-2-(hydroxyimino)-4-(naphthalen-2-yl)butanamide] | < 50 |

— patent US10227323B2, “Glucosylceramide synthase inhibitors for the treatment of diseases” (BIOMARIN PHARMACEUTICAL INC., priority 2013, dated 2019)
